{"source": "a compilation of properties of binary mixtures (doi:10.1007/s10973-018-7427-0)", "test": "xn = mol fraction of the nth substance listed", "settings": "100 kPa", "data": [{"compound": "CCCC[n+]1ccn(C)c1.F[P-](F)(F)(F)(F)F", "note": "+ C=CN1CCCC1=O", "values": [{"measurement": "speed of sound", "setting": "298.15 K, x1 = 1", "result": 1443.8, "unit": "m/s"}, {"measurement": "speed of sound", "setting": "303.15 K, x1 = 1", "result": 1431.7, "unit": "m/s"}, {"measurement": "speed of sound", "setting": "308.15 K, x1 = 1", "result": 1419.8, "unit": "m/s"}, {"measurement": "speed of sound", "setting": "313.15 K, x1 = 1", "result": 1408.2, "unit": "m/s"}, {"measurement": "speed of sound", "setting": "318.15 K, x1 = 1", "result": 1396.8, "unit": "m/s"}, {"measurement": "speed of sound", "setting": "323.15 K, x1 = 1", "result": 1385.6, "unit": "m/s"}]}, {"compound": "C=CN1CCCC1=O", "note": "+ CCCC[n+]1ccn(C)c1.F[P-](F)(F)(F)(F)F", "values": [{"measurement": "speed of sound", "setting": "298.15 K, x2 = 0", "result": 1521.5, "unit": "m/s"}, {"measurement": "speed of sound", "setting": "298.15 K, x2 = 0.2059", "result": 1506, "unit": "m/s"}, {"measurement": "speed of sound", "setting": "298.15 K, x2 = 0.3019", "result": 1496.4, "unit": "m/s"}, {"measurement": "speed of sound", "setting": "298.15 K, x2 = 0.3937", "result": 1487.8, "unit": "m/s"}, {"measurement": "speed of sound", "setting": "298.15 K, x2 = 0.5023", "result": 1477.6, "unit": "m/s"}, {"measurement": "speed of sound", "setting": "298.15 K, x2 = 0.584", "result": 1470.5, "unit": "m/s"}, {"measurement": "speed of sound", "setting": "298.15 K, x2 = 0.6946", "result": 1461.5, "unit": "m/s"}, {"measurement": "speed of sound", "setting": "298.15 K, x2 = 0.7788", "result": 1455.7, "unit": "m/s"}, {"measurement": "speed of sound", "setting": "298.15 K, x2 = 0.8707", "result": 1449.9, "unit": "m/s"}, {"measurement": "speed of sound", "setting": "303.15 K, x2 = 0.1011", "result": 1498.9, "unit": "m/s"}, {"measurement": "speed of sound", "setting": "303.15 K, x2 = 0.2059", "result": 1490.1, "unit": "m/s"}, {"measurement": "speed of sound", "setting": "303.15 K, x2 = 0.3937", "result": 1473.5, "unit": "m/s"}, {"measurement": "speed of sound", "setting": "303.15 K, x2 = 0.5023", "result": 1463.9, "unit": "m/s"}, {"measurement": "speed of sound", "setting": "303.15 K, x2 = 0.584", "result": 1457.4, "unit": "m/s"}, {"measurement": "speed of sound", "setting": "303.15 K, x2 = 0.6946", "result": 1449.1, "unit": "m/s"}, {"measurement": "speed of sound", "setting": "303.15 K, x2 = 0.7788", "result": 1443.4, "unit": "m/s"}, {"measurement": "speed of sound", "setting": "303.15 K, x2 = 0.8707", "result": 1437.9, "unit": "m/s"}, {"measurement": "speed of sound", "setting": "308.15 K, x2 = 0", "result": 1483.7, "unit": "m/s"}, {"measurement": "speed of sound", "setting": "308.15 K, x2 = 0.1011", "result": 1481.8, "unit": "m/s"}, {"measurement": "speed of sound", "setting": "308.15 K, x2 = 0.3937", "result": 1459.2, "unit": "m/s"}, {"measurement": "speed of sound", "setting": "308.15 K, x2 = 0.5023", "result": 1450.2, "unit": "m/s"}, {"measurement": "speed of sound", "setting": "308.15 K, x2 = 0.584", "result": 1444.3, "unit": "m/s"}, {"measurement": "speed of sound", "setting": "308.15 K, x2 = 0.7788", "result": 1431.1, "unit": "m/s"}, {"measurement": "speed of sound", "setting": "308.15 K, x2 = 0.8707", "result": 1425.8, "unit": "m/s"}, {"measurement": "speed of sound", "setting": "313.15 K, x2 = 0", "result": 1465, "unit": "m/s"}, {"measurement": "speed of sound", "setting": "313.15 K, x2 = 0.1011", "result": 1464.7, "unit": "m/s"}, {"measurement": "speed of sound", "setting": "313.15 K, x2 = 0.2059", "result": 1458.3, "unit": "m/s"}, {"measurement": "speed of sound", "setting": "313.15 K, x2 = 0.3937", "result": 1444.9, "unit": "m/s"}, {"measurement": "speed of sound", "setting": "313.15 K, x2 = 0.584", "result": 1431.2, "unit": "m/s"}, {"measurement": "speed of sound", "setting": "313.15 K, x2 = 0.7788", "result": 1419, "unit": "m/s"}, {"measurement": "speed of sound", "setting": "313.15 K, x2 = 0.8707", "result": 1414, "unit": "m/s"}, {"measurement": "speed of sound", "setting": "318.15 K, x2 = 0", "result": 1446.5, "unit": "m/s"}, {"measurement": "speed of sound", "setting": "318.15 K, x2 = 0.3019", "result": 1436.6, "unit": "m/s"}, {"measurement": "speed of sound", "setting": "318.15 K, x2 = 0.3937", "result": 1430.9, "unit": "m/s"}, {"measurement": "speed of sound", "setting": "318.15 K, x2 = 0.5023", "result": 1423.4, "unit": "m/s"}, {"measurement": "speed of sound", "setting": "318.15 K, x2 = 0.584", "result": 1418.4, "unit": "m/s"}, {"measurement": "speed of sound", "setting": "318.15 K, x2 = 0.6946", "result": 1411.6, "unit": "m/s"}, {"measurement": "speed of sound", "setting": "318.15 K, x2 = 0.7788", "result": 1407, "unit": "m/s"}, {"measurement": "speed of sound", "setting": "318.15 K, x2 = 0.8707", "result": 1402.3, "unit": "m/s"}, {"measurement": "speed of sound", "setting": "323.15 K, x2 = 0.1011", "result": 1431.1, "unit": "m/s"}, {"measurement": "speed of sound", "setting": "323.15 K, x2 = 0.3937", "result": 1416.9, "unit": "m/s"}, {"measurement": "speed of sound", "setting": "323.15 K, x2 = 0.5023", "result": 1410.2, "unit": "m/s"}, {"measurement": "speed of sound", "setting": "323.15 K, x2 = 0.584", "result": 1405.7, "unit": "m/s"}, {"measurement": "speed of sound", "setting": "323.15 K, x2 = 0.6946", "result": 1399.4, "unit": "m/s"}, {"measurement": "speed of sound", "setting": "323.15 K, x2 = 0.7788", "result": 1395.1, "unit": "m/s"}, {"measurement": "speed of sound", "setting": "323.15 K, x2 = 0.8707", "result": 1390.8, "unit": "m/s"}]}]}
